Counter-ions that a name gives are not always drawn.
Key:
hPPARgamma = target: T1, hPPARgamma (Homo sapiens, UniProt P37231); assay: hPPARgamma Ligand Binding Assay; conditions: PPARg Ki, competition with [3H]-BRL 49,653, room temperature 2 hrs
T1 construct: 10x-histidine tag (N); made in house; host or cells: E. coli
T1 sequence (P37231 195-475 isoform P37231-2): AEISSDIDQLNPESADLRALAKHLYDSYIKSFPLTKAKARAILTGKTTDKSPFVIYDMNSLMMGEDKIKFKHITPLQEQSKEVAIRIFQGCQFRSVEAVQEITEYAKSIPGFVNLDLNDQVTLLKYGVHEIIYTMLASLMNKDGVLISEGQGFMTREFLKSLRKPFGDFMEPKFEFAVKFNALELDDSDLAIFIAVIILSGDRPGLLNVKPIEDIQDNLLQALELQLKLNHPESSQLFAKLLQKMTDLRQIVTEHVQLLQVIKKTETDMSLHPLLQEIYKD

PPARg = assay: PPARgamma Transient Cotransfection Assay; type: cell-based; conditions: CAT reporter, read-out: PPARg EC50

`Cc1cc(-c2ccco2)nn1CCOc1ccc(C[C@H](Nc2ccccc2C(=O)c2ccccc2)C(=O)O)cc1` [Example 63, 2S-(2-benzoyl-phenylamino)-3-{4-[2-(3-furan-2-yl-5-methyl-pyrazol-1-yl)-ethoxy]-phenyl}-propionic acid] was tested, and the Ki (hPPARgamma) was 30 nM and the EC50 (PPARg) was 20 nM.

Work on `O=C(c1ccccc1)c1ccccc1N[C@@H](Cc1ccc(OC[C@@H]2CCCN2c2ccccn2)cc1)C(=O)O` [Example 61, 2S-(2-benzoyl-phenylamino)-3-[4-(1-pyridin-2-yl-pyrrolidin-2S-yl-methoxy)-phenyl]-propionic acid] yielded a Ki (hPPARgamma) of 10 nM and an EC50 (PPARg) of 15 nM.

With `CN(CCOc1ccc(CC(Nc2ccccc2C(=O)c2ccc(-c3ccccc3)cc2)C(=O)O)cc1)c1nc2ccccc2o1` (stereo not drawn) [Example 109, 3-{4-[2-(Benzoxazol-2-yl-methylamino)-ethoxy]-phenyl}-2-(2-(4-biphenylcarbonyl)-phenylamino)-propionic acid] the Ki (hPPARgamma) was 700 nM and the EC50 (PPARg) was 200 nM.

`COC(=O)c1ccccc1N[C@@H](Cc1ccc(OC[C@@H]2CCCN2c2ccc([N+](=O)[O-])cc2)cc1)C(=O)O` [Example 47, 2-(1-Carboxy-2-{4-[1-(4-nitro)-phenyl-pyrrolidin-2-ylmethoxy]-phenyl}-ethylamino)-benzoic acid methyl ester] was tested, and the Ki (hPPARgamma) was 240 nM and the EC50 (PPARg) was 50 nM.

For `Cc1oc(-c2ccccc2)nc1CCOc1ccc(CC(Nc2ccccc2C(=O)c2ccc(CN)cc2)C(=O)O)cc1` (stereo not drawn) [Example 82, 2-[2-(4-aminomethyl-benzoyl)-phenylamino]-3-{4-[2-(6-methyl-2-phenyl-oxazol-4-yl)-ethoxy]-phenyl}-propionic acid hydrochloride], the Ki (hPPARgamma) was 65 nM and the EC50 (PPARg) was 25 nM.

Work on `COc1cccc(C(=O)c2ccccc2NC(Cc2ccc(OCCN(C)c3nc4ccccc4o3)cc2)C(=O)O)c1` (stereo not drawn) [Example 78] yielded a Ki (hPPARgamma) of 40 nM and an EC50 (PPARg) of 200 nM.

For `Cc1oc(-c2ccccc2)nc1CCOc1ccc(CC(Nc2ccccc2C(=O)C2CCCCC2)C(=O)O)cc1` (single isomer, unassigned) [Example 54, 2-(2-Cyclohexanecarbonyl-phenylamino)-3-{4-[2-(5-methyl-2-phenyl-oxazol-4-yl)-ethoxy]-phenyl}-propionic acid], the Ki (hPPARgamma) was 3000 nM and the EC50 (PPARg) was 250 nM.

With `Cc1oc(-c2ccccc2)nc1CCOc1ccc(CC(Nc2ccccc2C(=O)c2cccc(NS(C)(=O)=O)c2)C(=O)O)cc1` (stereo not drawn) [Example 95, 2-[2-(3-methanesulfonylamino-benzoyl)-phenylamino]-3-{4-[2-(5-methyl-2-phenyl-oxazol-4-yl)-ethoxy]-phenyl}-propionic acid] the Ki (hPPARgamma) was 380 nM and the EC50 (PPARg) was 700 nM.

In the case of `COC(=O)c1ccccc1N[C@@H](Cc1ccc(OCCSc2ccc(Cl)cc2)cc1)C(=O)O` [Example 46, 2-(1-Carboxy-2-{4-[2-(4-clhorophenylsulfanyl)-ethoxy]-phenyl}-ethylamino)-benzoic acid methyl ester], the Ki (hPPARgamma) is reported as 750 nM and the EC50 (PPARg) is reported as 900 nM.

Work on `O=C(c1ccccc1)c1ccccc1NC(Cc1ccc(OCc2csc(-c3ccc(Cl)cc3)n2)cc1)C(=O)O` (stereo not drawn) [Example 30, 2-(2-Benzoyl-phenylamino)-3-{4-[2-(4-chlorophenyl)-thiazol-4ylmethoxy]-phenyl}-propionic acid] yielded a Ki (hPPARgamma) of 300 nM and an EC50 (PPARg) of 50 nM.

`Cc1ccccc1C(=O)c1ccccc1NC(Cc1ccc(OCCN(C)c2nc3ccccc3o2)cc1)C(=O)O` (stereo not drawn) [Example 112, 3-{4-[2-(Benzoxazol-2-yl-methylamino)-ethoxy]-phenyl}-2-(2-(2-methyl-benzoyl)-phenylamino)-propionic acid] gave a Ki (hPPARgamma) of 130 nM and an EC50 (PPARg) of 10 nM.

`O=C(c1ccccc1)c1ccsc1NC(Cc1ccc(OCc2ccccc2)cc1)C(=O)O` (stereo not drawn) [Example 8, 2-(3-Benzoyl-thiophen-2-yl-amino)-3-(4-benzyloxy-phenyl)-propionic acid] showed a Ki (hPPARgamma) of 21 nM and an EC50 (PPARg) of 720 nM.

Reference: patent US6294580A, “Substituted 4-hydroxy-phenylalcanoic acid derivatives with agonist activity to PPAR-gamma” (Glaxo Wellcome Inc., priority 1996, dated 2001)
